Source: patent US7183068B2, “Methods of manufacturing glucose measuring assemblies with hydrogels” (Animas Technologies, LLC, priority 1999, dated 2007)
Where “and” joins values, the source holds several entries; their conditions need not be identical. Equal values may be shown once.

Assays:
[1] = Adsorption of Nipastat paraben components from hydrogel by gel retaining layer, HPLC of gel extract; format: physicochemical; details: 9 Days at 4° C.; for % Loss of Nipastat ® biocide from Gel: Gel + GRL versus Gel Control; for HPLC peak intensity of paraben extracted from hydrogel, Average: average of 5; for HPLC peak intensity of paraben extracted from hydrogel: individual samples 1-5
Description: (§1) Nipastat®-containing hydrogels were formulated with the appropriate buffer salts under standard conditions, from which samples were taken for analysis. […] The hydrogels were cut using a ¾ inch punch to generate the sample disks to assay. Each disk was added to 5 mL of acetonitrile/water (30% ACN, v/v) and the Nipastat® biocide was extracted for 1 hour while shaking on an orbital shaker at 100 rpm. The extract was then filtered through a 0.2 μm membrane prior to HPLC separation and UV detection at 254 nm.
(§2) Reverse phase HPLC chromatography was performed using a Waters 3.9 mm×15 cm Nova-Pak C-18 column (Milford, Mass.) operating at a flow rate of between about 1.0 to 2.0 mL/min. at 35° C. The eluent was monitored by UV at 254 nm using a Shimadzu SPD-10AU UV-Visible spectrometer (Kyoto, Japan). Samples 10 μL in volume were injected into the column equilibrated in 30% ACN in water, and the following 20-minute gradient program was performed: • 1. Initial time of injection: 30% ACN/70% water at a flow rate of 1 mL/min • 2. Linear Gradient from 30% ACN to 80% ACN for 9.0 minutes (1 mL/min) • 3. Linear Gradient from 80% ACN to 100% ACN for 0.5 minutes (1 mL/min) • 4. 100% ACN for 4.5 minutes (1 mL/min) • 5. Linear Gradient from 100% ACN to 30% ACN for 0.5 minutes at a flow rate of 2 mL/min • 6.30% ACN for 5.5 minutes at a flow rate of 1 mL/min
(§3) The HPLC profiles of the extracts were compared with that of a standard solution of known concentration comprising the p-hydroxybenzoate derivatives. The peak intensities of the experimental samples are compared to those of the standards to determine relative amounts of each extracted paraben.
(§4) Collection assemblies incorporating Nipastat® biocide-comprising hydrogels were assayed for retention of the biocide within the hydrogel. Samples of the hydrogel prior to and after incorporation into the collection assembly, as well as the components of the collection assembly in contact with the hydrogel, were prepared as described in Example 1.

[2] = Adsorption of Nipastat paraben components from hydrogel by mask layer, HPLC of gel extract; format: physicochemical; details: 48 Hours at 4° C.; for % Loss of Nipastat ® biocide from Gel: Gel + Mask versus Gel Control; for HPLC peak intensity of paraben extracted from hydrogel, Average: average of 5; for HPLC peak intensity of paraben extracted from hydrogel: individual samples 1-5
Description: as §1, §2, §3, §4

Eschericia coli = experiment: Modified USP antimicrobial preservative effectiveness test of hydrogels; format: cell-based; details: Eschericia coli inoculation, 28 day period
Description: (§5) Nipastat® biocide and undecylenic acid were compared with respect to the effects their presence (within the ionically conductive medium) had on microbial growth over time. A modified USP antimicrobial preservative effectiveness test was performed, using Aspergillus niger, Candida albicans, Eschericia coli, Pseudomonas aeruginosa and Staphylococcus aureus. Separate portions of the two hydrogels were inoculated with a low concentration of one of the listed microorganisms, and recovery of the microorganism was determined over a period of 28 days. For this assay, the microorganisms were cultured, harvested and diluted to yield working suspensions of 2.0×10^3 to 2.0×10^4 colony forming units (CFUs)/sample.

Pseudomonas aeruginosa = experiment: as above; format: cell-based; details: Pseudomonas aeruginosa inoculation, 28 day period
Description: as §5

Staphylococcus aureus = experiment: as above; format: cell-based; details: Staphylococcus aureus inoculation, 28 day period
Description: as §5

Candida albicans = experiment: as above; format: cell-based; details: Candida albicans inoculation, 28 day period
Description: as §5

Aspergillus niger = experiment: as above; format: cell-based; details: Aspergillus niger inoculation, 28 day period
Description: as §5

[3] = Adsorption of undecylenic acid from hydrogel into mask layer, GC; format: physicochemical; details: Two Weeks at Room Temperature
Description: (§6) Collection assemblies incorporating sodium undecylenate-comprising hydrogels were assayed for retention of the biocide within the hydrogel. The presence of undecylenic acid in the hydrogel and assembly components was determined by gas chromatography (GC) using a Hewlett Packard (Avondale, Pa.) 5890 gas chromatogram equipped with an HP 3396A integrator. The hydrogels and collection assembly components were cut using a ¾ inch punch to generate the samples to assay. Each sample “disk” was added to 4 mL of 1M HCl, and the undecylenic acid was extracted for 2 hours while shaking on an orbital shaker at 150 rpm, followed by 10 minutes at 100 rpm. The sample disks were then extracted twice with 4 mL of ethyl acetate. Samples 1 μL in volume were injected into the GC and the results compared to that generated for a standard solution of undecylenic acid.

[4] = Loss of undecylenic acid from hydrogel, gel control, GC; format: physicochemical; details: Two Weeks at Room Temperature
Description: as §6

[5] = Response of sensing electrode to glucose, acetaminophen and uric acid in presence of biocide (percent recovery); details: preconditioned 10 minutes at 0.77V, 50 minutes at 0.42V
Text: Two biocides were compared with respect to the effects their presence (within the ionically conductive medium) had on signal generation at the sensing element under three conditions: in the presence of glucose, glucose plus acetaminophen, and glucose plus uric acid. The Nipastat® biocide was shown in the examples above to form a permeation selective barrier at the reactive face of the sensor element. The second biocide tested, undecylenic acid, was not expected to polymerize under the iontophoretic conditions used during the functionality test as described in the previous example. The measured responses of the sensor elements are presented in Table 7, normalized to a control “background” response for each sensor element. As described in Example 5, the sensor electrodes were assembled with the collection insert layer containing the appropriate ionically conductive material (control, Nipastat® biocide, or undecylenic acid biocide) to form the autosensor assemblies. The autosensor assemblies were preconditioned for 10 minutes at 0.77V, followed by 50 minutes at 0.42V, after which the glucose solution (200 μM) plus or minus the interferant species was deposited onto the ionically conductive material, and the response of the sensor element measured from this time forward.

[6] = Adsorption of undecylenic acid from hydrogel into gel retaining layer, GC; format: physicochemical; details: Two Weeks at Room Temperature
Description: as §6

In the case of `CCOC(=O)c1ccc(O)cc1` [Ethyl, p-hydroxybenzoic acid ethyl ester], the “% Loss of Nipastat ® biocide from Gel” value [1] is reported as 34.2%, the “HPLC peak intensity of paraben extracted from hydrogel, Average” value (from here on “HPLC peak intensity … Average”) ([1]; Gel + GRL) is reported as 40848 and the “HPLC peak intensity of paraben extracted from hydrogel” value ([1]; Gel + GRL) is reported as 23429 and 43116 and 38410 and 46214 and 53073. For the same compound, the “HPLC peak intensity … Average” value ([1]; Gel Control) was 62118, the “HPLC peak intensity of paraben extracted from hydrogel” value ([1]; Gel Control) was 58534 and 68190 and 70588 and 56529 and 56747 and the “% Loss of Nipastat ® biocide from Gel” value [2] was 99.9%. The “HPLC peak intensity … Average” value ([2]; Gel + Mask) was 57, the “HPLC peak intensity of paraben extracted from hydrogel” value ([2]; Gel + Mask) was 0 (4×) and 285 and the “HPLC peak intensity … Average” value ([2]; Gel Control) was 63573. For the same compound, the “HPLC peak intensity of paraben extracted from hydrogel” value ([2]; Gel Control) was 43754 and 52495 and 93771 and 58684 and 69162.

For `COC(=O)c1ccc(O)cc1` [Methyl, p-hydroxybenzoic acid methyl ester], the “% Loss of Nipastat ® biocide from Gel” value [1] was 17.0%, the “HPLC peak intensity … Average” value ([1]; Gel + GRL) was 231960 and the “HPLC peak intensity of paraben extracted from hydrogel” value ([1]; Gel + GRL) was 147682 and 239356 and 231307 and 251620 and 289836. The “HPLC peak intensity … Average” value ([1]; Gel Control) was 279309, the “HPLC peak intensity of paraben extracted from hydrogel” value ([1]; Gel Control) was 261836 and 315315 and 313086 and 256304 and 250006 and the “% Loss of Nipastat ® biocide from Gel” value [2] was 96.1%. For the same compound, the “HPLC peak intensity … Average” value ([2]; Gel + Mask) was 10075, the “HPLC peak intensity of paraben extracted from hydrogel” value ([2]; Gel + Mask) was 5445 and 11776 and 13807 and 11268 and 8081 and the “HPLC peak intensity … Average” value ([2]; Gel Control) was 257019. For the same compound, the “HPLC peak intensity of paraben extracted from hydrogel” value ([2]; Gel Control) was 199735 and 233495 and 282756 and 265561 and 303549.

With `CCCOC(=O)c1ccc(O)cc1` [Propyl, p-hydroxybenzoic acid propyl ester] the “% Loss of Nipastat ® biocide from Gel” value [1] was 58.5%, the “HPLC peak intensity … Average” value ([1]; Gel + GRL) was 10873 and the “HPLC peak intensity of paraben extracted from hydrogel” value ([1]; Gel + GRL) was 4958 and 11465 and 9664 and 15618. For the same compound, the “HPLC peak intensity … Average” value ([1]; Gel Control) was 26218, the “HPLC peak intensity of paraben extracted from hydrogel” value ([1]; Gel Control) was 24034 and 30121 and 30407 and 24349 and 22180 and the “% Loss of Nipastat ® biocide from Gel” value [2] was 99.8%. For the same compound, the “HPLC peak intensity … Average” value ([2]; Gel + Mask) was 50, the “HPLC peak intensity of paraben extracted from hydrogel” value ([2]; Gel + Mask) was 0 (4×) and 252 and the “HPLC peak intensity … Average” value ([2]; Gel Control) was 24535. The “HPLC peak intensity of paraben extracted from hydrogel” value ([2]; Gel Control) was 18744 and 22146 and 27621 and 25936 and 28226.

With `C=CCCCCCCCCC(=O)O` [undecylenic acid, 10-undecenoic acid] the “biocide activity within the hydrogel: microbial count” value (“biocide activity within the hydrogel” below) (Eschericia coli) was “effective at reducing the microbial count”, the “effectiveness compared between the two biocides” value (Eschericia coli) was “equally effective” and the “biocide activity within the hydrogel” value (Pseudomonas aeruginosa) was “effective at reducing the microbial count”. For the same compound, the “effectiveness compared between the two biocides” value (Pseudomonas aeruginosa) was “more effective than the Nipastat® biocide”, the “biocide activity within the hydrogel” value (Staphylococcus aureus) was “effective at reducing the microbial count” and the “effectiveness compared between the two biocides” value (Staphylococcus aureus) was “more effective than the Nipastat® biocide”. For the same compound, the “biocide activity within the hydrogel” value (Candida albicans) was “effective at reducing the microbial count”, the “effectiveness compared between the two biocides” value (Candida albicans) was “equally effective” and the “biocide activity within the hydrogel” value (Aspergillus niger) was “effective at reducing the microbial count”. The “effectiveness compared between the two biocides” value (Aspergillus niger) was “more effective than the Nipastat® biocide”, the “% Loss for Gel + Mask Layer, Average” value ([3]; average) was 73.1% and the “% Loss for Gel + Mask Layer” value ([3]; individual hydrogel samples) was 73.3% and 68.5% and 78.2% and 72.5%. For the same compound, the “% Loss for Gel Control, Average” value ([4]; average) was 62.4%, the “% Loss for Gel Control” value ([4]; individual hydrogel samples) was 64.9% and 68.1% and 75.2% and 76.2% and 37.2% and 52.8% and the “formation of a permeation selective barrier impeding acetominophen and uric acid signal generation” value [5] was “does not”. The “% Loss for Gel + GRL, Average” value ([6]; average) was 28.1% and the “% Loss for Gel + GRL” value ([6]; individual hydrogel samples) was 37.0% and 28.4% and 22.2% and 24.7%.

With p-hydroxybenzoic acid butyl esters the “% Loss of Nipastat ® biocide from Gel” value [2] was 99.9%, the “HPLC peak intensity … Average” value ([2]; Gel + Mask) was 87 and the “HPLC peak intensity of paraben extracted from hydrogel” value ([2]; Gel + Mask) was 0 (4×) and 436. For the same compound, the “HPLC peak intensity of paraben extracted from hydrogel” value ([2]; Gel Control) was 50220.
